# Reference: US20020082180A1, “Fabric cleaning system” (Unilever Home & Personal Care USA, Division of Conopco, Inc., priority 2000, published 2002)
# Experiment: log P, partitioning coefficient of the fluorescer between octanol and water
# Assay type: physicochemical
# Details: octanol/water at ambient temperature
# From the text: We have found the fluorescers of the present invention to be very effective when used with carbon dioxide whilst the fluorescers are readily soluble in carbon dioxide without the need for surfactants. A preferable selection of fluorescers can be described by their log P value. Log P being the partitioning coefficient of the fluorescer between octanol and water at ambient temperature, whereby P is the concentration of the fluorescer in octanol divided by the concentration of fluorescer in water. (Leo et al. Chem Rev 1971, 71, 525). If appropriate, the log P is determined in the presence of sodium and/or chloride as counterions. Accordingly, a preferred group of fluorescer has a log P of at least 2, more preferably at least 2.5. In many cases, the log P may also be estimated using specially designed programs, also described as clog P or calculated log P. However, if in certain cases these programs are inappropriate, the real log P should be measured.
compound,measurement,value
c1ccc2oc(-c3ccc(-c4nc5ccccc5o4)s3)nc2c1 [Tinopal™ SOP],log P,> 2.5
